Key:
[1] = system: human neutrophils; assay: Human neutrophil adhesion to glass slides with or without fibrinogen; format: cell-based; conditions: increasing concentrations, 2.5 hours
Method: To ascertain whether the binding of PA-dPEG24 has an effect on the ability of neutrophils to adhere to surfaces in vitro, purified human neutrophils were incubated with increasing concentrations of PA-dPEG24, washed twice with PBS, placed on the glass slides, and then incubated in a humidified 37° C. incubator in the presence of 5% C02 for 2.5 hours. Slides were subsequently stained with DAPI (1:1000 in 2% BSA) followed by imaging at 20× by fluorescence microscopy. Quantification of the amount of cell staining was performed using ImageJ analysis (NIH). […] To ascertain if adherence of neutrophils was altered on glass slides pre-coated with fibrinogen, purified human neutrophils were incubated with increasing concentrations of PA-dPEG24, washed twice with PBS, placed on the fibrinogen-coated glass slides, and then incubated in a humidified 37° C. incubator in the presence of 5% C02 for 2.5 hours. Slides were subsequently stained with DAPI (1:1000 in 2% BSA) followed by imaging at 20× by fluorescence microscopy. Quantification of the amount of cell staining was performed using ImageJ analysis (NIH).

[2] = system: human neutrophils; assay: Human neutrophil viability, Cell Counting Kit-8; format: cell-based; conditions: cells in PBS or RPMI; compared to buffer alone
Method: Cell viability in the presence of increasing amounts of PA-dPEG24 was determined using the Cell Counting Kit-8 (Dojindo). Cell Counting Kit-8 (CCK-8) is a sensitive colorimetric assay for the determination of cell viability in cell proliferation and cytotoxicity assays. The highly water-soluble tetrazolium salt, WST-8, is reduced by dehydrogenase activities in cells to give a yellow-color formazan dye, which is soluble in the tissue culture media. The amount of the formazan dye, generated by the activities of dehydrogenases in cells, is directly proportional to the number of living cells. Neutrophils were isolated from whole blood. Briefly, heparinized whole blood was collected from four different individuals (n=4). The blood was spun on a Hypaque/Ficoll gradient. The pellet was collected, and 3% dextran was added for 20 minutes. The supernatant was collected and washed several times. After a red blood cell lysis, the neutrophils were resuspended in either PBS or RPMI at a concentration of 1.0×10^6 cells/mL. ‘Fresh’ neutrophils were taken at this point and 100 uL (100,000 cells/well) were added to a 96-well plate. 10 uL of CCK-8 (Dojindo Molecular Technologies) was added to each well for 2 hours at 37 C. Absorbance at 450 nm was read to determine viability. […] Absorbance at 450 nm was read to determine viability.

[3] = 1 hour after IVT injection; compared to saline
[4] = system: VEGF binding to VEGFR-2 (KDR); assay: VEGF Bioassay (Promega), bioluminescent reporter cells; conditions: increasing peptide concentrations, then human VEGF stimulation
[5] = system: MPO; assay: OVA/LPS rat asthma model, MPO in BALF (colorimetric); conditions: vs Day 24 asthma animals
[6] = system: human monocytes; assay: C1q-immune complex binding to C1q receptors on human monocytes; format: cell-based; conditions: increasing amounts of peptide
Description: Human monocytes were purified and allowed to adhere to a microtiter plate. […] Absorbance was read at 450 nm. N=3. Bars indicate standard error of the mean (SEM).
Freshly purified human monocytes were allowed to adhere to a 96 well tissue culture plates and nonadherent lymphocytes were removed. […] Unbound immune complexes were washed off and an anti-rabbit HRP antibody was used to detect bound immune complexes, followed by development with TMB and quenching of the reaction with 1N H2SO4 and detection at 450 nm in a plate reader. […] Therefore, without wishing to be bound by theory, this increase has implications for diseases where immune complexes contribute to pathogenesis, including numerous inflammatory ophthalmologic diseases (e.g., uveitis or retinitis), which are situations were increased rapidity of immune complexes can potentially lessen disease severity.

[7] = Pharmacokinetics, metabolite profiles and excretion of [14C]-PIC1-dPEG24 after single IV dose; format: in vivo, rat; conditions: for Adjusted Peak Distribution (ROI %) in Rat Plasma: AUC0-24 hr pooled plasma, integrated together: M89/M160, M1444/M1701/M1573, M1288/M1217, M2244/M2357/M2470, M2768/PIC1-dPEG24; for estimated mean concentration within 0-24 hr in AUC0-24 hr pooled plasma: parent value = PIC1-dPEG24 and M2768 together
Method: […]. The six rats in Group 3 and Group 4 were further divided into two subgroups for serial blood collections at 10, 30 min and 1, 2, 3, 4, 6, 8, 24, and 48 hr. Blood was pooled by equal volume across animals at each time point, and aliquots (˜200 μL) of pooled blood were removed at each time point for total radioactivity, and the rest of blood samples were centrifuged to obtain plasma. Bile, urine, feces, and cage wash samples were collected up to 72 hr in bile duct cannulated (BDC) rats, and up to 168 hr in intact rats, and terminal blood samples were collected at the end of study (72 hr or 168 hr post-doses). The total radioactivity concentrations in the excreta, blood and plasma were determined by homogenization, combustion and/or liquid scintillation counting (LSC). The metabolite profiles and structure characterization were conducted in pooled plasma, urine, and bile samples using LC-UV/MS as well as radioactive detection. […].
The radioactive profiles of rat plasma samples for the low dose group and the high dose group were qualitatively similar.

[8] = system: free DNA; assay: Free DNA in plasma by PicoGreen assay, two-hit ALI rat model; format: in vivo
Method: . Plasma samples were incubated with PicoGreen. […] All free DNA measurements for each animal were done in triplicate. Data are means and standard error of the mean. Statistical analysis was performed using bootstrap approach or Welch's ANOVA. * denotes p=0.026, ** denotes p=0.039 and *** denotes p=0.005 compared to 2-hit animals.
Neutrophil extracellular traps (NETs) released from activated neutrophils have been previously shown to play a pathogenic role in a variety of autoimmune, metabolic, and inflammatory diseases. […] . […] .

CC[C@H](C)[C@H](N)C(=O)N[C@@H](C)C(=O)N[C@@H](CC(C)C)C(=O)N[C@H](C(=O)N[C@@H](CC(C)C)C(=O)N[C@@H](CCC(=O)O)C(=O)N1CCC[C@H]1C(=O)N[C@H](C(=O)N[C@@H](CS)C(=O)N[C@@H](CS)C(=O)N[C@@H](CCC(N)=O)C(=O)N[C@@H](CCC(=O)O)C(=O)N[C@@H](CCCNC(=N)N)C(=O)N[C@@H](C)C(=O)N[C@@H](C)C(=O)NCCOCCOCCOCCOCCOCCOCCOCCOCCOCCOCCOCCOCCOCCOCCOCCOCCOCCOCCOCCOCCOCCOCCOCCOCCC(=O)O)[C@@H](C)CC)[C@@H](C)CC [RLS-0071]
neutrophil adherence to fibrinogen-coated glass slides ([1]; fibrinogen-coated glass): dose-dependently decreased neutrophil adherence
number of neutrophils adhered to glass slides ([1]; untreated glass): dose-dependently reduced the number of cells adhered to the slides
neutrophil viability (CCK-8, absorbance 450 nm) [2]: dose-dependent increase in viability
DAB staining of retinal tissue [3]: significant DAB signal
inhibition of VEGF binding to VEGFR-2 and intracellular signaling (luminescence) [4]: dose-dependent inhibition of intracellular signaling
MPO levels in the BALF ([5]; prophylactic 160 mg/kg IV, p=0.12): reduction in MPO levels that did not reach statistical significance
MPO levels in the BALF ([5]; rescue 160 mg/kg IV, P=0.05): significant reduction in MPO levels
amount of C1q detected on monocytes [6]: increased with increasing amounts of PA-dPEG24
level of C1q-immune complexes bound to monocytes [6]: did not reduce the level of C1q-immune complexes
Adjusted Peak Distribution (ROI %) in Rat Plasma ([7]; Group 3 (20 mg/kg IV)): about 12%
Adjusted Peak Distribution (ROI %) in Rat Plasma ([7]; Group 4 (200 mg/kg IV)): ~16%
estimated mean concentration within 0-24 hr in AUC0-24 hr pooled plasma ([7]; high dose group (200 mg/kg IV)): 2225 ng Eq/g
estimated mean concentration within 0-24 hr in AUC0-24 hr pooled plasma ([7]; low dose group (20 mg/kg IV)): 187 ng Eq/g
free DNA level in plasma ([8]; prophylactic 10, 40 and 160 mg/kg, 4 hours after transfusion, 160 mg/kg significant (p=0.026)): reduced levels of free DNA
free DNA level in plasma ([8]; rescue 40 mg/kg up to three hours after 2-hit injury, 120 and 180 minutes significant (p=0.039, p=0.005)): reduced levels of free DNA
stability in diluted dose solution in water (6-day storage at -20 °C freezer, M2768 detected): not stable
stability in solutions, rat urine, and/or rat plasma (decomposes to M2768 by dehydrogenation): not stable
stability in rat plasma and urine (spiked into control blank rat plasma and pre-dose urine, or decomposition during sample processing): not stable in rat plasma/urine

— patent publication US20240010681A1, “PEPTIDES AND METHODS OF USE” (REALTA LIFE SCIENCES, INC., priority 2020, published 2024)
